Test results: ChEMBL document CHEMBL1151449, “In vitro activity of DC-159a, a new broad-spectrum fluoroquinolone, compared with that of other agents against drug-susceptible and -resistant pneumococci” (2008)
In brackets after ≈: the same amount, converted by molar mass.

Tests used:
Streptococcus pneumoniae [1] = test: Antibacterial activity against Streptococcus pneumoniae HMC 1156 harboring S81F and S79F mutation in quinolone-resistant determining regions of GyrA and ParC genes respectively showing efflux to ciprofloxacin, gemifloxacin by agar dilution method; type: functional
Streptococcus pneumoniae [2] = test: Antibacterial activity against penicillin-resistant and quinolone-susceptible Streptococcus pneumoniae HMC 228 expressing ermB after 38 passages by broth microdilution method; type: functional
Streptococcus pneumoniae [3] = test: Antibacterial activity against macrolide-, quinolone-susceptible and penicillin-intermediate Streptococcus pneumoniae HMC 100 harboring S81Y mutation in quinolone-resistant determining regions of GyrA gene after 22 passages with moxifloxacin measured after 10 daily antibiotic-free subculturing by multi-step resistance selection technique; type: functional
Streptococcus pneumoniae [4] = test: Antibacterial activity against macrolide-, quinolone-susceptible and penicillin-intermediate Streptococcus pneumoniae HMC 100 after 50 passages by broth microdilution method; type: functional
Streptococcus sp. [5] = test: Antibacterial activity against levofloxacin-intermediate -resistant Streptococcus sp. by agar dilution method; type: functional
Streptococcus pneumoniae [6] = test: Antibacterial activity against penicillin-resistant and quinolone-susceptible Streptococcus pneumoniae HMC 3583 expressing mefA after 49 passages by broth microdilution method; type: functional
Streptococcus pneumoniae [7] = test: (§1) Antibacterial activity against penicillin-, macrolide-susceptible and quinolone-resistant Streptococcus pneumoniae HMC 1074 harboring S81F mutation in quinolone-resistant determining regions of GyrA gene, S79F mutation in QRDR of ParC gene and I460V mutation in QRDR of ParE gene after 50 passages by broth microdilution method; type: functional
Streptococcus sp. [8] = test: Antibacterial activity against Streptococcus sp. by agar dilution method; type: functional
Streptococcus pneumoniae [9] = test: Antibacterial activity against penicillin-resistant and quinolone-susceptible Streptococcus pneumoniae HMC 228 expressing ermB after 50 passages by broth microdilution method; type: functional
Streptococcus pneumoniae [10] = test: Antibacterial activity against azithromycin-resistant Streptococcus pneumoniae […] by agar dilution method; type: functional
Streptococcus pneumoniae [11] = test: Antibacterial activity against penicillin-resistant and quinolone-susceptible Streptococcus pneumoniae HMC 3583 expressing mefA after 50 passages by broth microdilution method; type: functional
Streptococcus pneumoniae [12] = test: Antibacterial activity against penicillin-resistant and quinolone-susceptible Streptococcus pneumoniae HMC 3583 expressing mefA after 46 passages by broth microdilution method; type: functional
Streptococcus pneumoniae [13] = test: Antibacterial activity against penicillin-resistant and quinolone-susceptible Streptococcus pneumoniae HMC 228 expressing ermB after 28 passages by broth microdilution method; type: functional
Streptococcus pneumoniae [14] = test: Antibacterial activity against penicillin-, macrolide- and quinolone-susceptible Streptococcus pneumoniae HMC 63 after 34 passages by broth microdilution method; type: functional
Streptococcus pneumoniae [15] = test: Antibacterial activity against penicillin-resistant and quinolone-susceptible Streptococcus pneumoniae HMC 3583 expressing mefA after 41 passages by broth microdilution method; type: functional
Streptococcus pneumoniae [16] = test: as §1, with “27” for “50”; type: functional
Streptococcus pneumoniae [17] = test: Antibacterial activity against macrolide-, quinolone-susceptible and penicillin-intermediate Streptococcus pneumoniae HMC 100 after 42 passages by broth microdilution method; type: functional
Streptococcus pneumoniae [18] = test: Antibacterial activity against macrolide-, quinolone-susceptible and penicillin-intermediate Streptococcus pneumoniae HMC 100 after 22 passages by broth microdilution method; type: functional
Streptococcus pneumoniae [19] = test: Antibacterial activity against penicillin-resistant and quinolone-susceptible Streptococcus pneumoniae HMC 228 expressing ermB after 36 passages by broth microdilution method; type: functional
Streptococcus pneumoniae [20] = test: Antibacterial activity against macrolide-, quinolone-susceptible and penicillin-intermediate Streptococcus pneumoniae HMC 99 after 41 passages by broth microdilution method

Row | Structure (SMILES) | MIC (Streptococcus pneumoniae [1]) [µg/mL] | MIC (Streptococcus pneumoniae [3]) [µg/mL] | MIC (Streptococcus pneumoniae [4]) [µg/mL] | MIC (Streptococcus pneumoniae [7]) [µg/mL] | MIC (Streptococcus pneumoniae [9]) [µg/mL] | MIC50 (Streptococcus pneumoniae [10]) [µg/mL] | MIC90 (Streptococcus pneumoniae [10]) [µg/mL] | MIC (Streptococcus pneumoniae [11]) [µg/mL] | other results
1 | COc1c(N2CC3(CC3)[C@](C)(N)C2)c(F)cc2c(=O)c(C(=O)O)cn([C@@H]3C[C@@H]3F)c12.O | 1 | 0.5 | 0.5 | 1 | 1 | 0.12 | 0.12 | 1 | MIC (Streptococcus pneumoniae [2]): 1 µg/mL; MIC90 (Streptococcus sp. [5]): 1 µg/mL; MIC (Streptococcus pneumoniae [6]): 1 µg/mL; MIC90 (Streptococcus sp. [8]): 0.125 µg/mL
2 | COc1c(N2CCNC(C)C2)c(F)cc2c(=O)c(C(=O)O)cn(C3CC3)c12 (stereo unspecified) [GATIFLOXACIN] | 8 (≈ 21.3 µM) | 4 (≈ 10.7 µM) | 0.5 (≈ 1.33 µM) | 8 (≈ 21.3 µM) |  | 0.5 (≈ 1.33 µM) | 0.5 (≈ 1.33 µM) |  | MIC (Streptococcus pneumoniae [12]): 4 µg/mL (≈ 10.7 µM); MIC (Streptococcus pneumoniae [13]): 4 µg/mL (≈ 10.7 µM)
3 | CO/N=C1\CN(c2nc3c(cc2F)c(=O)c(C(=O)O)cn3C2CC2)CC1CN (stereo unspecified) [GEMIFLOXACIN] | 0.1 (≈ 0.257 µM) | 0.25 (≈ 0.642 µM) |  |  | 0.25 (≈ 0.642 µM) | 0.03 (≈ 0.077 µM) | 0.06 (≈ 0.154 µM) |  | MIC (Streptococcus pneumoniae [14]): 0.5 µg/mL (≈ 1.28 µM); MIC (Streptococcus pneumoniae [15]): 0.25 µg/mL (≈ 0.642 µM); MIC (Streptococcus pneumoniae [16]): 4 µg/mL (≈ 10.3 µM); MIC (Streptococcus pneumoniae [17]): 1 µg/mL (≈ 2.57 µM)
4 | COc1c(N2C[C@@H]3CCCN[C@@H]3C2)c(F)cc2c(=O)c(C(=O)O)cn(C3CC3)c12 [MOXIFLOXACIN] | 4 (≈ 9.96 µM) | 1 (≈ 2.49 µM) |  | 8 (≈ 19.9 µM) |  |  |  | 0.5 (≈ 1.25 µM) | MIC (Streptococcus pneumoniae [18]): 2 µg/mL (≈ 4.98 µM); MIC (Streptococcus pneumoniae [19]): 2 µg/mL (≈ 4.98 µM); MIC (Streptococcus pneumoniae [20]): 4 µg/mL (≈ 9.96 µM)
